Tested on: SKMES lung carcinoma
Experiment: In vivo evaluation of compound 0503 against SKMES human lung carcinoma xenograft, i.v. dose range (Example 20)
Conditions: for % Total Response: complete or partial responses among evaluable animals; for MDS (n): mean days of survival until neoplasm reached 2.0 g, 6 mice, terminated Day 60; for survival extension / MDS: other mice; for MDS: tumor 2.0 g
Procedure: The antitumor compound was prepared in a vehicle of 10% ethanol and 90% Liposyn III in the manner as described for Emulsion 3 of Example 9.
Treatment groups consisted of: vehicle only (Group 1), and antitumor compound 0503 (dosages of 104 mg/kg, 72.8 mg/kg, 41.6 mg/kg, and 10.4 mg/kg; Groups 2-5, respectively).

[1] = 10.4 mg/kg, single IV bolus Day 1
[2] = 10.4 mg/kg, single IV bolus Day 1, number of mice of 6, Day 60
[3] = 41.6 mg/kg, single IV bolus Day 1
[4] = 41.6 mg/kg, single IV bolus Day 1, number of mice of 6, Day 60
[5] = 72.8 mg/kg, single IV bolus Day 1
[6] = 72.8 mg/kg, single IV bolus Day 1, number of mice of 6, Day 60
[7] = 104 mg/kg, single IV bolus Day 1
[8] = 104 mg/kg, single IV bolus Day 1, number of mice of 6, Day 60
[9] = SKMES, 72.8 mg/kg single IV bolus (Group 3)
[10] = SKMES, 72.8 mg/kg single IV bolus (Group 3), six mice
[11] = SKMES, 104 mg/kg single IV bolus (Group 2)

SMILES: CCC(=O)O[C@H]1C(=O)[C@@]2(C)[C@H]([C@H](OC(=O)c3ccccc3)[C@]3(O)C[C@H](OC(=O)[C@H](O)[C@@H](NC(=O)OC(C)(C)C)c4ccccn4)C(C)=C1C3(C)C)[C@]1(OC(C)=O)CO[C@@H]1C[C@@H]2O [Compound 0503]
- % Total Response [1]: 0%
- MDS (n) [1]: 26.0 ± 2.5 (6) days
- Toxic Deaths (10.4 mg/kg, single IV bolus Day 1, number of mice of 6): 0
- Partial Response [2]: 0
- Stable Disease [2]: 0
- Survivors [2]: 0
- % Total Response [3]: 0%
- MDS (n) [3]: 33.8 ± 3.4 (5) days
- Toxic Deaths (41.6 mg/kg, single IV bolus Day 1, number of mice of 6): 0
- Partial Response [4]: 0
- Stable Disease [4]: 1
- Survivors [4]: 1
- % Total Response [5]: 33.3%
- MDS (n) [5]: 37.4 ± 5.2 (4) days
- Toxic Deaths (72.8 mg/kg, single IV bolus Day 1, number of mice of 6): 0
- Partial Response [6]: 1
- Stable Disease [6]: 0
- Survivors [6]: 2
- % Total Response [7]: 50.0%
- MDS (n) [7]: 46.6 ± 3.2 (3) days
- Toxic Deaths (104 mg/kg, single IV bolus Day 1, number of mice of 6): 0
- Partial Response [8]: 0
- Stable Disease [8]: 0
- Survivors [8]: 3
- survival extension [9]: 114%
- MDS [9]: 37.4 days
- Complete Response [10]: One
- Partial Response [10]: one
- complete tumor regressions (SKMES, 104 mg/kg single IV bolus (Group 2), 10% ethanol, 90% Liposyn III, six mice): Three
- survival extension [11]: 167%
- MDS [11]: 46.6 days
